Measured values as given in ChEMBL document CHEMBL1909046, “DrugMatrix in vitro pharmacology data”.

How the values were obtained:
[1] = DRUGMATRIX: Purinergic P2X radioligand binding (ligand: [3H] alpha, beta-Methylene-ATP); format: cell membranes, Oryctolagus cuniculus, New Zealand albino, Urinary bladder, Membrane; settings: Not Active = under 50% inhibition at 10 µM
[2] = target: T1, C-C chemokine receptor type 4 (Homo sapiens, UniProt P51679); format: cell membranes, Membrane; settings: chem-1; also: in other assays of this panel Not Active means under 50% inhibition at 10 µM
T1 sequence (P51679 whole entry): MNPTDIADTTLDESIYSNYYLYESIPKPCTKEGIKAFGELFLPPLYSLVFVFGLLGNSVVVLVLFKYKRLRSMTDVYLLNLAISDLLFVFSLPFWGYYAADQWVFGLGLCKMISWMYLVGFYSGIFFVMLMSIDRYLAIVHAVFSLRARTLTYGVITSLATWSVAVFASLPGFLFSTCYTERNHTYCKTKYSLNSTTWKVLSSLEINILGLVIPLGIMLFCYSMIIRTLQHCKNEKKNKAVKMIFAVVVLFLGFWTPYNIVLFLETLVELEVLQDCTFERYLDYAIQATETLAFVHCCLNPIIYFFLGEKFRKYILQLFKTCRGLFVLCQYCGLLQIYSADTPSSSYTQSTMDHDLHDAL

[3] = target: Insulin receptor (Rattus norvegicus, UniProt P15127); format: cell membranes, Wistar, Liver, Membrane; also: in other assays of this panel Not Active means under 50% inhibition at 10 µM
Sequence of Insulin receptor (P15127 27-759 limits assumed): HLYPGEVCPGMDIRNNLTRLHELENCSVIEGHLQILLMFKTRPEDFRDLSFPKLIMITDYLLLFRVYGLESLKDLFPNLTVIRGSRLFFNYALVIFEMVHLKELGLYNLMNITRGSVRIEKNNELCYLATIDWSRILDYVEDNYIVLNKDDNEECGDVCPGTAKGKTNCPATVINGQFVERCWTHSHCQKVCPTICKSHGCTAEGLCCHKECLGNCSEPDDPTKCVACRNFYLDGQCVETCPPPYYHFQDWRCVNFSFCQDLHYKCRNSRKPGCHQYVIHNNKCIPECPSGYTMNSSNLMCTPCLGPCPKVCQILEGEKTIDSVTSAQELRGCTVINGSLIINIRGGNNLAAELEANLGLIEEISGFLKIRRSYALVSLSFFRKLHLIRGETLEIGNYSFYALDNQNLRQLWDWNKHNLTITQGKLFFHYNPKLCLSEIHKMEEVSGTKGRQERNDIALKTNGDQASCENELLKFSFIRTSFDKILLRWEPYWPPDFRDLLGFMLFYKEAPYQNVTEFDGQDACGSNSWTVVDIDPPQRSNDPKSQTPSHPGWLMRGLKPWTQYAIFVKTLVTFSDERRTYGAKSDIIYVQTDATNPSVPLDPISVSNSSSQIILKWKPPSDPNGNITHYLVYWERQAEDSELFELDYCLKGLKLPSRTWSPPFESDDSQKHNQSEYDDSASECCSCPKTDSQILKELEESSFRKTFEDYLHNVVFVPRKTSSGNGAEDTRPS
Sequence of Insulin receptor (P15127 764-1383 limits assumed): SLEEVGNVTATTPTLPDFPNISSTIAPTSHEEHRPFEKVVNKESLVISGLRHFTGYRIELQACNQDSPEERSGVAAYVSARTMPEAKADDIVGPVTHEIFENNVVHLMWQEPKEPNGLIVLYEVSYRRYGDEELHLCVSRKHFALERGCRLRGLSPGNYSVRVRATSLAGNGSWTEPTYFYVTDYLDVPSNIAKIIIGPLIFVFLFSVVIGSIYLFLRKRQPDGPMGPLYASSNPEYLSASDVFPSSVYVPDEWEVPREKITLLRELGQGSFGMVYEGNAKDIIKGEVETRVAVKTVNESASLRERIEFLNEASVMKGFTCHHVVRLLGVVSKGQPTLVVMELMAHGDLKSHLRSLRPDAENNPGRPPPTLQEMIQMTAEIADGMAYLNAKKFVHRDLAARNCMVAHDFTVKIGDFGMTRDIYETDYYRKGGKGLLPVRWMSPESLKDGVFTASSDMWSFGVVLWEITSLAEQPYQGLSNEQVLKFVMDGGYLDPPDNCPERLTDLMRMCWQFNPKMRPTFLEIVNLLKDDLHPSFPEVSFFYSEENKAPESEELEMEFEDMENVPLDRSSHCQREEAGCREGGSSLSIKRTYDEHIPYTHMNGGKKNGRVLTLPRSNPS

[4] = target: T2, Receptor-type tyrosine-protein phosphatase C (Homo sapiens, UniProt P08575); set-up: species or system Escherichia coli;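 also: inhibition of CD45 enzyme activity measured using DiFMUP as substrate; in other assays of this panel Not Active means under 50% inhibition at 10 µM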
T2 sequence (P08575 whole entry): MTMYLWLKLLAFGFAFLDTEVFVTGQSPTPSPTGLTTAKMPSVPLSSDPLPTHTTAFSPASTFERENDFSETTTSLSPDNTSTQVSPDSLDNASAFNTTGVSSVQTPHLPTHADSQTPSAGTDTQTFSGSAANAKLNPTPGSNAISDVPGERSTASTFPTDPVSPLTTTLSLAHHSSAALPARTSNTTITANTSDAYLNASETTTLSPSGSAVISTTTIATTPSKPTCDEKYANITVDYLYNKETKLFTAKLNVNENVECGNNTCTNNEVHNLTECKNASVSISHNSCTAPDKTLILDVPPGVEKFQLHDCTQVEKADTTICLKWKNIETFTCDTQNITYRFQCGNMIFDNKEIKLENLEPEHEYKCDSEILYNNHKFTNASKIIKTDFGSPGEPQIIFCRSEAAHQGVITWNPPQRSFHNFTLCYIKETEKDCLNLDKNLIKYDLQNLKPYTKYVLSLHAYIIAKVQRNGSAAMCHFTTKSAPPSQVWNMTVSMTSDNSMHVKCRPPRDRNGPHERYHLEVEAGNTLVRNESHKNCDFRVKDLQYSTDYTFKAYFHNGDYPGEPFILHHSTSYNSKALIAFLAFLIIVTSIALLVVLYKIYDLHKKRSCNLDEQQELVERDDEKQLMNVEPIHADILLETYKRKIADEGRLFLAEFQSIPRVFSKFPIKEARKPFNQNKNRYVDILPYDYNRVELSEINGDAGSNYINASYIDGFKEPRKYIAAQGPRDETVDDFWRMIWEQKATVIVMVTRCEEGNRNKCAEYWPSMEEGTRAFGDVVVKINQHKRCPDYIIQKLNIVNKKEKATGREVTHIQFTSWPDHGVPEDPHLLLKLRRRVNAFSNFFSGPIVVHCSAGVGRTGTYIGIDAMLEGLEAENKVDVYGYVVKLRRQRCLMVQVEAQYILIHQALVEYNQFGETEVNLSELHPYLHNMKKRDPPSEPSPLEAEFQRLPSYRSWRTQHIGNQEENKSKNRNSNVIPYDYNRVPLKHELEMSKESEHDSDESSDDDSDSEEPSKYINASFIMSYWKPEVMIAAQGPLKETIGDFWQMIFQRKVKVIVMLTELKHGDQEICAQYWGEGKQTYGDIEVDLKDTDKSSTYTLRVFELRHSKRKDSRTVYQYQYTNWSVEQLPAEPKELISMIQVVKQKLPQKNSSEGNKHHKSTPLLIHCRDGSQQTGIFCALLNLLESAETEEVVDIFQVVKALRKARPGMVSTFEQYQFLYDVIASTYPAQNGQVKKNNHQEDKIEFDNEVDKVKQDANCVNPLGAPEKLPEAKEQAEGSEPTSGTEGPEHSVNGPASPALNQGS

[5] = target: T3, Estrogen receptor (Homo sapiens, UniProt P03372); settings: sf9; also: in other assays of this panel Not Active means under 50% inhibition at 10 µM
T3 sequence (P03372 whole entry): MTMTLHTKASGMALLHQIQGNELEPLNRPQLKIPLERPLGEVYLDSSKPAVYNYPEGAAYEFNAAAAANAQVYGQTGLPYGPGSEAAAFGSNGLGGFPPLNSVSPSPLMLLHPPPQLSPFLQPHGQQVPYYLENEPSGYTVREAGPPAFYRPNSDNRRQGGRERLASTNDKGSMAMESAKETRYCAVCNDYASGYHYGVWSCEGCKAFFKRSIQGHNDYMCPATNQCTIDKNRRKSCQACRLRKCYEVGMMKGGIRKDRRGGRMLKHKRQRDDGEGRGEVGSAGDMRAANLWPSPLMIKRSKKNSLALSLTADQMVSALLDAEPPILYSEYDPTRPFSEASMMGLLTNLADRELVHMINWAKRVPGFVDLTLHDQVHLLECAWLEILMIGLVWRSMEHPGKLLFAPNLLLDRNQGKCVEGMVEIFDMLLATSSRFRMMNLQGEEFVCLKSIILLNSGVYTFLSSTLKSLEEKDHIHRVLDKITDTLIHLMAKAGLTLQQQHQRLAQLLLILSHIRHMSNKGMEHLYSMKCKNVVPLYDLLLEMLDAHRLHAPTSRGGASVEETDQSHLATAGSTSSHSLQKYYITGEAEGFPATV

[6] = target: T4, Vasoactive intestinal polypeptide receptor 1 (Homo sapiens, UniProt P32241); format: cell membranes, Membrane; settings: ht-29; also: in other assays of this panel Not Active means under 50% inhibition at 10 µM
T4 sequence (P32241 whole entry): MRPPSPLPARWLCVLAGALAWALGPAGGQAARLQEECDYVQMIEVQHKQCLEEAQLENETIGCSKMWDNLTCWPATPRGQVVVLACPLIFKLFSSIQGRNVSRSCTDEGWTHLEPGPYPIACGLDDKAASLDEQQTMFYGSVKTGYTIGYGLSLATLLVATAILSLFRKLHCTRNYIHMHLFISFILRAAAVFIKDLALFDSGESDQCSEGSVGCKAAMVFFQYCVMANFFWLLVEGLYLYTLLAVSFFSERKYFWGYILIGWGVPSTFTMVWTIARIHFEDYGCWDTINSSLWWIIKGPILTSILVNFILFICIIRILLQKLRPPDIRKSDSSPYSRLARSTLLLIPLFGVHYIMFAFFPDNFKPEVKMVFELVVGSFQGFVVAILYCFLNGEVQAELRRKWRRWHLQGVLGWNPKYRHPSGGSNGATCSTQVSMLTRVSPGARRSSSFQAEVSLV

[7] = DRUGMATRIX: Nicotinic Acetylcholine radioligand binding (ligand: [125I] Epibatidine); format: cell membranes, Membrane; settings: imr-32; Not Active = under 50% inhibition at 10 µM

Cc1nnc2n1-c1ccc(Cl)cc1C(c1ccccc1)=NC2 [ALPRAZOLAM]
Not Active: IC50 [1] | Ki [1] | IC50 [2] | IC50 [3] | IC50 [4] | IC50 [5] | IC50 [6] | IC50 [7] | Ki [7]

COc1ccc2cc3[n+](cc2c1OC)CCc1cc2c(cc1-3)OCO2.[Cl-] [BERBERINE CHLORIDE]
Not Active: IC50 [1] | Ki [1] | IC50 [2] | IC50 [3] | IC50 [4] | IC50 [5] | IC50 [6] | IC50 [7] | Ki [7]

NC(=O)C[S+]([O-])C(c1ccccc1)c1ccccc1 (stereo not drawn) [MODAFINIL]
Not Active: IC50 [1] | Ki [1] | IC50 [2] | IC50 [3] | IC50 [4] | IC50 [5] | IC50 [6] | IC50 [7] | Ki [7]

C[C@@H]1CC[C@@]2(OC1)O[C@H]1[C@@H](O)[C@H]3[C@@H]4CC[C@H]5C[C@@H](O[C@@H]6O[C@H](CO)[C@H](O[C@@H]7O[C@H](CO)C(O)[C@H](O[C@@H]8OC[C@@H](O)[C@H](O)[C@H]8O)[C@H]7O[C@@H]7O[C@H](CO)[C@H](O)[C@H](O[C@@H]8O[C@H](CO)[C@@H](O)[C@H](O)[C@H]8O)[C@H]7O)[C@H](O)[C@H]6O)[C@H](O)C[C@]5(C)[C@H]4CC[C@]3(C)[C@H]1[C@@H]2C (stereo partly drawn) [DIGITONIN]
Not Active: IC50 [1] | Ki [1] | IC50 [2] | IC50 [3] | IC50 [4] | IC50 [5] | IC50 [6] | IC50 [7] | Ki [7]

O=C1CN=C(c2ccccc2Cl)c2cc([N+](=O)[O-])ccc2N1 [CLONAZEPAM]
Not Active: IC50 [1] | Ki [1] | IC50 [2] | IC50 [3] | IC50 [4] | IC50 [5] | IC50 [6] | IC50 [7] | Ki [7]

AURANOFIN
Not Active: IC50 [1] | Ki [1] | IC50 [2] | Ki [2] | IC50 [3] | Ki [3] | IC50 [4] | Ki [4] | IC50 [5] | Ki [5] | IC50 [6] | Ki [6] | IC50 [7] | Ki [7]

CC(C(=O)O)c1ccc2oc(-c3ccc(Cl)cc3)nc2c1 (stereo not drawn) [BENOXAPROFEN]
Not Active: IC50 [1] | Ki [1] | IC50 [2] | IC50 [3] | IC50 [4] | IC50 [5] | IC50 [6] | IC50 [7] | Ki [7]

Cn1c(=O)c2[nH]cnc2n(C)c1=O.Cn1c(=O)c2[nH]cnc2n(C)c1=O.NCCN [AMINOPHYLLINE]
Not Active: IC50 [1] | Ki [1] | IC50 [2] | IC50 [3] | IC50 [4] | IC50 [6] | IC50 [7] | Ki [7]

CCCNCC(O)COc1ccccc1C(=O)CCc1ccccc1 (stereo not drawn) [PROPAFENONE]
Not Active: IC50 [1] | Ki [1] | IC50 [2] | IC50 [3] | IC50 [4] | IC50 [6] | IC50 [7] | Ki [7]

CC(C)NCC(O)COc1cccc2[nH]ccc12 (stereo not drawn) [PINDOLOL]
Not Active: IC50 [1] | Ki [1] | IC50 [2] | IC50 [3] | IC50 [4] | IC50 [6] | IC50 [7] | Ki [7]

N=C(N)NC(=O)Cc1c(Cl)cccc1Cl [GUANFACINE]
Not Active: IC50 [1] | Ki [1] | IC50 [2] | IC50 [3] | IC50 [4] | IC50 [6] | IC50 [7] | Ki [7]

O=C(N/N=C/c1ccc([N+](=O)[O-])o1)c1cc([N+](=O)[O-])cc([N+](=O)[O-])c1O [NIFURSOL]
Not Active: IC50 [1] | Ki [1] | IC50 [2] | IC50 [3] | IC50 [4] | IC50 [6] | IC50 [7] | Ki [7]

COc1cc([C@@H]2c3cc4c(cc3[C@@H](O[C@@H]3O[C@@H]5CO[C@@H](C)O[C@H]5[C@H](O)[C@H]3O)[C@H]3COC(=O)[C@H]23)OCO4)cc(OC)c1O [ETOPOSIDE]
Not Active: IC50 [1] | Ki [1] | IC50 [2] | IC50 [3] | IC50 [4] | IC50 [6] | IC50 [7] | Ki [7]

CC(C(=O)O)c1cccc(Oc2ccccc2)c1 (stereo not drawn) [FENOPROFEN]
Not Active: IC50 [1] | Ki [1] | IC50 [2] | IC50 [3] | IC50 [4] | IC50 [6] | IC50 [7] | Ki [7]

CN1[C@@H]2CC[C@H]1C[C@@H](OC(=O)C(CO)c1ccccc1)C2 (stereo partly drawn) [ATROPINE]
Not Active: IC50 [1] | Ki [1] | IC50 [2] | IC50 [3] | IC50 [4] | IC50 [6] | IC50 [7] | Ki [7]

CCCN(CCC)S(=O)(=O)c1ccc(C(=O)O)cc1 [PROBENECID]
Not Active: IC50 [1] | Ki [1] | IC50 [2] | IC50 [3] | IC50 [4] | IC50 [6] | IC50 [7] | Ki [7]

CC[C@H]1CN2CCc3cc(OC)c(OC)cc3[C@@H]2C[C@@H]1C[C@H]1NCCc2cc(OC)c(OC)cc21 [EMETINE]
Not Active: IC50 [1] | Ki [1] | IC50 [2] | IC50 [3] | IC50 [4] | IC50 [6] | IC50 [7] | Ki [7]
